# According to ChEMBL document CHEMBL1201862, “PubChem BioAssay data set” (2004):
#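 Compound exposure: 48 hours, 5 concentrations, 96-well plates. At the GI50, growth is halved.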 Activity calls are given as the source filed them. No stated cut-off is given here; in the data, active = GI50 up to about 1.1 µM and inactive = higher.
# Experiments:
# Assay in all cases: DTP human tumour cell line panel, 48 h
# ACHN = tested on: ACHN
# EKVX = tested on: EKVX
# HCC 2998 = tested on: HCC 2998
# HCT-116 = tested on: HCT-116
# HCT-15 = tested on: HCT-15
# K562 = tested on: K562
# KM12 = tested on: KM12
# M14 = tested on: M14
# MOLT-4 = tested on: MOLT-4
# NCI-H522 = tested on: NCI-H522
# OVCAR-5 = tested on: OVCAR-5
# RPMI-8226 = tested on: RPMI-8226
# RXF 393 = tested on: RXF 393
# SK-OV-3 = tested on: SK-OV-3
# SNB-75 = tested on: SNB-75
# SR = tested on: SR
SMILES,GI50 (ACHN),GI50 (EKVX),GI50 (HCC 2998),GI50 (HCT-116),GI50 (HCT-15),GI50 (K562),GI50 (KM12),GI50 (M14),GI50 (MOLT-4),GI50 (NCI-H522),GI50 (OVCAR-5),GI50 (RPMI-8226),GI50 (RXF 393),GI50 (SK-OV-3),GI50 (SNB-75),GI50 (SR)
O=C1O[B-](c2ccccc2)(c2ccccc2)[NH2+]C1CS (stereo not given),36.7 µM (inactive),> 100 µM (inactive),49.7 µM (inactive),33.7 µM (inactive),36 µM,23.9 µM (inactive),31.8 µM (inactive),52.6 µM (inactive),25.4 µM (inactive),43.3 µM (inactive),> 100 µM (inactive),20.2 µM (inactive),23.3 µM (inactive),> 100 µM (inactive),34.8 µM (inactive),28.8 µM (inactive)
Cc1c(/C=N/NC(=O)c2cc(Br)cc(Br)c2O)c(=O)n(-c2ccccc2)n1C,51.1 µM (inactive),> 100 µM (inactive),> 100 µM (inactive),56.4 µM (inactive),39.1 µM,51.4 µM (inactive),33.8 µM (inactive),36.9 µM (inactive),56.1 µM (inactive),33 µM (inactive),> 100 µM (inactive),85.7 µM (inactive),,> 100 µM (inactive),> 100 µM (inactive),
Cc1c(C(=O)CSc2nc3cc([N+](=O)[O-])ccc3[nH]2)c(=O)n(-c2ccccc2)n1C,> 100 µM (inactive),,36.6 µM (inactive),> 100 µM (inactive),> 100 µM,,> 100 µM (inactive),> 100 µM (inactive),> 100 µM (inactive),> 100 µM (inactive),> 100 µM (inactive),> 100 µM (inactive),,> 100 µM (inactive),> 100 µM (inactive),> 100 µM (inactive)
Cc1cc2c(=O)c3ccc(Cl)cc3[nH]c2c(C(N)=O)c1C,> 100 µM (inactive),> 100 µM (inactive),> 100 µM (inactive),> 100 µM (inactive),> 100 µM,83.2 µM (inactive),> 100 µM (inactive),> 100 µM (inactive),> 100 µM (inactive),> 100 µM (inactive),> 100 µM (inactive),> 100 µM (inactive),,> 100 µM (inactive),35.5 µM (inactive),
CNS(=O)(=O)NN(C)S(=O)(=O)c1ccc(Br)cc1,> 100 µM (inactive),> 100 µM (inactive),> 100 µM (inactive),> 100 µM (inactive),> 100 µM,> 100 µM (inactive),> 100 µM (inactive),> 100 µM (inactive),> 100 µM (inactive),> 100 µM (inactive),,> 100 µM (inactive),> 100 µM (inactive),,> 100 µM (inactive),> 100 µM (inactive)
CCOc1ccc(/C=C/C(=O)c2sc(NNC(C)=O)nc2C)cc1,> 100 µM (inactive),85.1 µM (inactive),> 100 µM (inactive),,> 100 µM,> 100 µM (inactive),> 100 µM (inactive),,> 100 µM (inactive),> 100 µM (inactive),> 100 µM (inactive),> 100 µM (inactive),> 100 µM (inactive),> 100 µM (inactive),> 100 µM (inactive),
NC(CCSC(F)F)C(=O)O (stereo not given),> 100 µM (inactive),> 100 µM (inactive),> 100 µM (inactive),> 100 µM (inactive),,> 100 µM (inactive),> 100 µM (inactive),> 100 µM (inactive),> 100 µM (inactive),> 100 µM (inactive),> 100 µM (inactive),,> 100 µM (inactive),> 100 µM (inactive),> 100 µM (inactive),> 100 µM (inactive)
COC(=O)c1c(-c2ccccc2)sc(-c2cccc3ccccc23)c1C(=O)OC,> 100 µM (inactive),> 100 µM (inactive),88.3 µM (inactive),> 100 µM (inactive),> 100 µM,> 100 µM (inactive),> 100 µM (inactive),> 100 µM (inactive),> 100 µM (inactive),> 100 µM (inactive),> 100 µM (inactive),> 100 µM (inactive),> 100 µM (inactive),> 100 µM (inactive),> 100 µM (inactive),
CC1OC(OC2CCCc3c(O)c4c(c(O)c32)C(=O)c2ccccc2C4=O)CC(N)C1O (stereo not given),1.88 µM (inactive),1.71 µM (inactive),2.07 µM (inactive),1.72 µM (inactive),,1.01 µM (active),1.58 µM (inactive),1.79 µM (inactive),0.652 µM (active),1.64 µM (inactive),1.91 µM (inactive),1.58 µM (inactive),1.02 µM (active),1.15 µM (inactive),1.35 µM (inactive),
NC(CCc1ncc(-c2ccccc2)s1)C(=O)O (stereo not given),> 100 µM (inactive),> 100 µM (inactive),> 100 µM (inactive),> 100 µM (inactive),> 100 µM,> 100 µM (inactive),> 100 µM (inactive),> 100 µM (inactive),> 100 µM (inactive),> 100 µM (inactive),,> 100 µM (inactive),> 100 µM (inactive),> 100 µM (inactive),85.9 µM (inactive),
COc1nc2nccc-2c2occn12,> 100 µM (inactive),> 100 µM (inactive),> 100 µM (inactive),> 100 µM (inactive),> 100 µM,> 100 µM (inactive),> 100 µM (inactive),> 100 µM (inactive),> 100 µM (inactive),> 100 µM (inactive),> 100 µM (inactive),> 100 µM (inactive),> 100 µM (inactive),> 100 µM (inactive),> 100 µM (inactive),
COC1=CC(=O)C2C(C1=O)[C@@H]1c3ccccc3OC(C)(C)[C@H]21 (stereo not given in full),14.2 µM (inactive),31.9 µM (inactive),> 100 µM (inactive),16.2 µM (inactive),19.9 µM,19 µM (inactive),68.1 µM (inactive),18.7 µM (inactive),10.1 µM (inactive),13.9 µM (inactive),40.8 µM (inactive),26.6 µM (inactive),14.1 µM (inactive),90.4 µM (inactive),10.6 µM (inactive),
COc1cc2c(cc1OC)C(=O)C(C1=C(SC(=N)N)C(=O)c3cc(OC)c(OC)cc31)C2 (stereo not given),> 100 µM (inactive),> 100 µM (inactive),> 100 µM (inactive),> 100 µM (inactive),> 100 µM,> 100 µM (inactive),> 100 µM (inactive),> 100 µM (inactive),> 100 µM (inactive),> 100 µM (inactive),> 100 µM (inactive),> 100 µM (inactive),,> 100 µM (inactive),> 100 µM (inactive),> 100 µM (inactive)
COC(=O)/C(C#N)=C(\N)C(Cl)(Cl)Cl,2.37 µM (inactive),4.68 µM (inactive),3.06 µM (inactive),0.643 µM (active),2.2 µM,0.442 µM (active),4.32 µM (inactive),1.43 µM (inactive),0.379 µM (active),1.9 µM (inactive),,1.57 µM (inactive),1.61 µM (inactive),1.81 µM (inactive),3.85 µM (inactive),0.449 µM (active)
NC(=O)C(=Cc1ccc(CP(=O)(O)O)cc1)C(N)=O,> 100 µM (inactive),> 100 µM (inactive),> 100 µM (inactive),> 100 µM (inactive),> 100 µM,> 100 µM (inactive),> 100 µM (inactive),> 100 µM (inactive),> 100 µM (inactive),> 100 µM (inactive),> 100 µM (inactive),> 100 µM (inactive),> 100 µM (inactive),> 100 µM (inactive),> 100 µM (inactive),
COc1ccc2cc3[n+](cc2c1O)CCc1cc2c(cc1-3)OCO2 [BERBERRUBINE CHLORIDE],79.8 µM (inactive),> 100 µM (inactive),> 100 µM (inactive),83 µM (inactive),> 100 µM,> 100 µM (inactive),> 100 µM (inactive),> 100 µM (inactive),52.8 µM (inactive),> 100 µM (inactive),> 100 µM (inactive),> 100 µM (inactive),> 100 µM (inactive),> 100 µM (inactive),> 100 µM (inactive),
CCCOP1(=O)C=CC(Cl)=C(C)C1 (stereo not given),24.9 µM (inactive),> 51.5 µM (inactive),> 63.1 µM (inactive),17.1 µM (inactive),16.8 µM,12 µM (inactive),20.8 µM (inactive),33 µM (inactive),10.9 µM (inactive),15.9 µM (inactive),20.7 µM (inactive),22.3 µM (inactive),16 µM (inactive),> 100 µM (inactive),55.8 µM (inactive),
O=C(CC1C(=O)Nc2ccccc2S1(=O)=O)Nc1cccc(Cl)c1 (stereo not given),16.9 µM (inactive),17.2 µM (inactive),18.2 µM (inactive),18.2 µM (inactive),15.5 µM,17.8 µM (inactive),,18.8 µM (inactive),11.9 µM (inactive),16.9 µM (inactive),23.2 µM (inactive),3.93 µM (inactive),16.3 µM (inactive),,16.8 µM (inactive),18.2 µM (inactive)
CCC1NCC(=O)c2c1[nH]c1ccccc21 (stereo not given),> 100 µM (inactive),> 100 µM (inactive),> 100 µM (inactive),> 100 µM (inactive),> 100 µM,> 100 µM (inactive),> 100 µM (inactive),> 100 µM (inactive),> 100 µM (inactive),91.6 µM (inactive),> 100 µM (inactive),> 100 µM (inactive),,> 100 µM (inactive),> 100 µM (inactive),> 100 µM (inactive)
